Results: US20220104486A1 (priority 2019, published 2022)
Like-named read-outs stand apart in the source and are kept apart here.

Test system: Fusarium graminearum
Type: in vivo
Conditions: seed treatment 0.3 mg ai/seed
[1] = corn, 36 days after planting, F. graminearum inoculum in furrow

## O=C(NCCc1ncc(C(F)(F)F)cc1Cl)c1ccccc1C(F)(F)F [Fluopyram]
Corn (Zea mays, variety N29t), plant stand 36 days after planting, F. graminearum inoculum in furrow, on base treatment
  Count plant number per 12 row meter: 54.58, B per 12 row meter
Corn field trial, high disease pressure
  efficacy against Fusarium graminearum, in words: moderate control
[1]
  % efficacy based on loss of plants due to disease: 49.95%
  % loss of plants due to disease based on a maximum of 60 plants per 12 row meters: 9.03%
corn, 36 days after planting, F. graminearum inoculum in furrow, listed as commercial standard
  % loss of plants due to disease based on a maximum of 60 plants per 12 row meters: 9%
